Measured values from US20210361701A1, “PENTAAZA MACROCYCLIC RING COMPLEXES FOR LOCAL DELIVERY” (Galera Labs, LLC, priority 2017, published 2021).
Several values for one entry are separate records, joined by “and”; a condition that tells them apart may be missing. Equal entries are not always repeated. Where two headings read alike, the source gives them in different places.

Assays:
[1] = Plasma pharmacokinetics after intraduodenal or intravenous dosing in female rats; assay type: in vivo; conditions: for plasma concentrations and Cmax: rat, in vivo
Procedure: Therefore, following equivalent doses of GC4403, the systemic exposure to an ID dose in this Example was at least 30-100 times lower than it would be from an IV dose. […] This is important since the No Observable Adverse Effect Level (NOAEL) for chronic repeated IV dosing of GC4403 in the rat was previously shown to be only 3 mg/kg/day, and at this time, GC4403 has only be administered successfully to humans by the IV route. Thus, GC4403 or another related dismutase mimetic, such as GC4419, administered as an appropriate oral dosage form delivering drug directly into the small intestine may be an effective treatment for Crohn's Disease, ulcerative colitis and related diseases in humans.

[2] = Rat indomethacin model of intestinal inflammation (Crohn's Disease); assay type: in vivo, Female Lewis rats
Procedure: A study was conducted to determine the potential efficacy of GC4403 delivered locally to the intestine in a model of intestinal inflammation (Crohn's Disease) induced by the administration of indomethacin. Female Lewis rats received cannulae surgically implanted in the duodenum with the opposite end exteriorized, and were allowed to recover. The cannulae enabled the direct injection of GC4403 or vehicle into the duodenum (intraduodenal or ID dosing) in these animals; however, uncannulated female Lewis rats were used for dosing groups not receiving ID dosing. Rats were administered indomethacin on experimental days 0 and 1 (9 mg/kg/d; subcutaneously) to induce lesions similar to those occurring in Crohn's disease in the small intestine (SI). The therapeutic interventions outlined in Table II were administered in 9 dosing groups of 10 (IV) or 12 (ID) animals each on days 0 through 3:
The rats were sacrificed and necropsied on day 4, and 10 cm sections from the middle portion of the SI (jejunum) were weighed and examined by histopathology for inflammation. The weight of a 10 cm section serves as a surrogate marker for comparing inflammation and edema across the dosing groups.

[3] = 30-minute iv infusion in humans; cited from earlier work
[4] = chronic repeated IV dosing, rat; cited from earlier work
[5] = Maximum tolerated dose by 30-minute iv infusion in humans; conditions: in a 70-kg subject
[6] = Phase 1b trial of intravenous GC4419: oral mucositis outcome; assay type: in vivo, human; conditions: IV GC4419 with IMRT plus CDDP; compared with historical controls
Procedure: (§1) The toxicity of GC4419 administered intravenously was evaluated as a part of a phase 1b trial of the use of GC4419 in the treatment of oral mucositis (OM) in patients having oral cavity or oropharyngeal carcinoma. The bioavailability by intravenous administration is presumed to represent 100% systemic bioavailability. In particular, the patients tested included serial 3-6 patient cohorts, with locally-advanced, non-metastatic oral cavity or oropharyngeal carcinoma. The study called for intensity-modulated (IM)RT to approx. 70 Gy total (>50 Gy to >2 oral sites), 2.0-2.2 Gy/fx M-F plus CDDP; plus escalating doses of GC4419, via 60-minute IV infusion, M-F for 3-7 weeks, ending <60 minutes before IMRT. WHO grade of oral mucositis was assessed twice weekly, and levels of GC4419 were measured in plasma by LC/MS. Circulating cytokines (Cy) mechanistically related to oral mucositis were also assayed.

[7] = Phase 1b trial of intravenous GC4419: toxicity and plasma pharmacokinetics; assay type: in vivo, human
Procedure: as §1
Furthermore, or Phase 1 trials for chemoradiotherapy-induced mucositis (OM) in patients with mouth or oropharyngeal carcinoma, treatment was provided but certain adverse effects (e.g., due to systemic toxicity) occurred. The dosing regimen included dosing with GC4419 intravenously over a period of 60 minutes, ending 60 minutes before an IMRT fraction, according to the protocol as described above. The most common adverse effects were nausea, fatigue, leukopenia, dry mount, dysgeusia and vomiting, and most were attributable to chemo or radiation therapy. A true “maximum dose” was not reached in this study. […] 16% of patients receiving 90 mg/day had grade 3 nausea, and 25% of those receiving 112 mg/day had grade 3 nausea, with those receiving 112 mg/day also experiencing some grade 3 vomiting (i.e., 25%).

[8] = Minipig intraduodenal (id) bioavailability of oil formulations versus iv parent complex; assay type: in vivo, Gottingen minipig; conditions: id 10 mg/kg, 10% by weight formulation, vs 1 mg/kg iv parent, AUC0->24 h
Procedure: Compounds were screened for oral bioavailability by injecting the formulated prodrugs directly into the duodenum (intraduodenal or id administration) of the minipig test subjects, thus bypassing the acidic environment of the stomach and thereby eliminating potentially misleading oral bioavailability results that could arise from alteration of the test article drug in the acid environment of the stomach.
The studies were conducted at Xenometrics LLC (Stillwell, Kans.) and the id bioavailability was determined using various axial ligand derivative complexes of GC4419, GC4444, GC4403 and GC4401. […] The following formula is then used to calculate the % oral bioavailability via intestinal absorption of the test article drug complex:
% Oral Bioavailability=AUC0->24 h(id)×(1/dose (mg/kg))÷AUC0->24 hr (iv)*
*Where the iv dose is 1 mg of test article drug per kilogram body weight of the mini-pig, and the dose administered id is 10 mg of test article drug per kg body weight of the mini-pig.
Male Gottingen minipigs (4-5 mo old, 9-12 kg weight) were purchased from Marshall BioResources and housed at Xenometrics. […] The distal end was exteriorized with a reusable accessible hub (see surgical details below). During a recovery period of at least 2 weeks the minipigs were handled daily to acclimate them to the test procedures, i.e., id dosing and blood collections. For each experiment, each minipig received a test article drug dissolved or suspended in an excipient vehicle. […] All dosing experiments were conducted in fasted animals. Food was withdrawn from the minipigs 16 hours before dosing. The minipigs had ad libitum access to water. Dosed minipigs were allowed access to food 6 hour after dosing. The test article was administered at a dose of 10 mg/kg parent drug in 0.1 mL/kg vehicle (e.g., 1.5 mL in 15 kg minipig) as a bolus injection (˜1 minute) via the id cannula. The actual amount of total test article drug administered varied with the formula weight of the prodrug. An equal volume of excipient vehicle was used to flush the cannula after the test article was administered. Approximately 6 hours later, corn oil was used to flush the cannula. After approximately 24 hours post-dose, the catheter was flushed with sterile saline solution and capped. At the following time-points 0.25, 0.5, 1, 2, 4, 8, 24 and 48 hour post-injection, 2 mL blood samples were collected by cranial vena cava puncture (4 mL Sodium heparin Vacutainer, 20 g 1.5″ needle) after the skin surface was wiped with ethanol. The minipig was placed in a sling in a recumbent position without anesthesia for the collection of blood samples. The minipigs were never used more than once per 7 days for experimentation. The blood samples were kept on ice until processed for plasma. Blood samples were centrifuged at 1200×g for ten minutes at 4° C. and plasma samples were transferred to 96 well plate tubes, capped and stored at −20° C. until shipment on dry ice to the analytical laboratory used for measuring the concentration of drug in the plasma. The concentration of the parent manganese pentaaza macrocylic ring complex (independent of the composition of the axial ligands) was measured in plasma using a validated HPLC/MS/MS method that is linear between 50 ng/mL and 20,000 ng/mL.
The oils used for preparing the dosing solutions were used as supplied from commercial sources. The Capmul MCM (NF) is a mixture of mono/diglycerides of caprylic/capric acids and was supplied by ABITEC Corporation, Janesville, Wis. The Miglyol 812 N is a mixture of caprylic/capric acid triglycerides and was supplied by Cremer Oleo Division, Eatontown, N.J. Labrafil M 2125 CS (NF) is chemically defined to be linoleoyl polyoxyl-6 glycerides NF and was supplied by Gattefosse, SAINT-PRIEST Cedex, France. Peceol is chemically defined to be the monoglyceride, glyceryl monooleate NF, and was supplied by Gattefosse, SAINT-PRIEST Cedex, France. […]

[9] = 10 mg/kg IP injection on days 0-3
[10] = 30 mg/kg ID, direct topical delivery into the intestine

Compound: [Cl-].[Cl-].[Mn+2].c1cc2nc(c1)CN[C@@H]1CCCC[C@H]1NCCN[C@@H]1CCCC[C@H]1NC2 [GC4403]
- mean plasma maximum ([1]; 3 mg/kg IV dose, separate study, measured 10 min after injection): at least 3,280 ng/mL
- mean plasma maximum (Cmax) ([1]; 30 mg/kg ID dose): 303 ng/mL
- calculated bioavailability ([1]; 30 mg/kg ID dose, AUC of ID vs estimated AUC with IV): 3.1%
- expected Cmax extrapolated ([1]; 30 mg/kg IV dose): approximately 32,800 ng/mL
- Cmax of ID dose relative to expected Cmax of same dose IV ([1]; 30 mpk ID vs 30 mg/kg IV (extrapolated)): less than 1%
- systemic exposure to an ID dose, lower than from an IV dose ([1]; equivalent doses): 30-100 times
- jejunal score [2, 9]: reduced
- jejunal weight [2, 9]: reduced
- reduction in jejunal score [2, 10]: 21%
- reduction in jejunal weight [2, 10]: 32%
- maximum tolerated dose [3]: 25 mg
- No Observable Adverse Effect Level (NOAEL) [4]: 3 mg/kg/day
- maximum tolerated dose [5]: roughly 0.35 mg/kg

Compound: [Cl][Mn][Cl].c1cc2nc(c1)CN[C@H]1CCCC[C@@H]1NCCN[C@H]1CCCC[C@@H]1NC2 [GC4419]
- plasma concentrations and Cmax [1]: similarly low plasma concentrations and Cmax as GC4403
- plasma concentrations and Cmax ([1]; iv): similarly high plasma concentrations and Cmax
- Severe OM [6]: briefer, delayed, less severe, and less frequent than expected
- nausea, patients ([7]; 30 mg/day for 14 or 30 doses, IV): 86%
- nausea, patients ([7]; 50 mg/day for 14 doses, IV): 100%
- nausea, patients ([7]; 75 mg/day for 14 doses, IV): 67%
- grade 3 nausea, patients ([7]; 90 mg/day, IV): 20% and 16%
- Dose-limiting toxicities that occurred, grade 3 ([7]; 112 mg daily, 60-minute IV infusion, with IMRT/CDDP): gastroenteritis (3 wks); and vomiting with hyponatremia (5+ wks)
- nausea, patients ([7]; 112 mg/day for 14, 20, 25 or 30 doses, IV): 89% and 85%
- Cmax and AUC ([7]; 60-minute IV infusion, 15-112 mg): dose-proportional
- plasma t1/2 ([7]; 60-minute IV infusion, patients): ~2 h
- dose limiting toxicity observed at ([7]; 60-minute IV infusion, grade 3 gastroenteritis at 3 weeks, grade 3 vomiting and hyponatremia at 5+ weeks): 112 mg/day
- GC4419-related toxicity ([7]; IV, 15-112 mg daily for 3-7 weeks): acceptable
- maximum dose ([7]; IV, up to 112 mg/day): not reached
- facial tingling ([7]; during infusion): Mild, transient facial tingling was observed
- paresthesia ([7]; patients receiving more than 30 mg/day, IV): Some grade 1-2 paresthesia was also observed

Compound: O=C([O-])c1ccccc1.O=C([O-])c1ccccc1.[Mn+2].c1cc2nc(c1)CNC1CCCCC1NCCNC1CCCCC1NC2 [GC4712, Manganese(II)bis-Benzoato[(4aS,13aS,17aS,21aS)-1,2,3,4,4a,5,6,12,13,13a,14,15,16,17,17a,18,19,20,21,21a-Eicosahydro-11,7-nitrilo-7H-dibenzo[b,h][1,4,7,10]tetraazacycloheptadecine-κN5, κN13, κN18, κN21, κN22]-]
- Mini-Pig BioA ([8]; Base oil Capmul MCM): 24%
- Mini-Pig BioA ([8]; Base oil Maisine 35-1): 18%
- Mini-Pig BioA ([8]; Base oil Peceol): 29%

Compound: CCCC(=O)[O-].CCCC(=O)[O-].[Mn+2].c1cc2nc(c1)CNC1CCCCC1NCCNC1CCCCC1NC2 [GC4713, Manganese(II)bis-n-Butyrato[(4aS,13aS,17aS,21aS)-1,2,3,4,4a,5,6,12,13,13a,14,15,16,17,17a,18,19,20,21,21a-Eicosahydro-11,7-nitrilo-7H-dibenzo[b,h][1,4,7,10]tetraazacycloheptadecine-κN5, κN13, κN18, κN21, κN22]-]
- Mini-Pig BioA ([8]; Base oil Labrafil M2125 CS): 21%
- Mini-Pig BioA ([8]; Base oil Peceol): 18%

Compound: CC1NC2CCCCC2NCCNC2CCCCC2NCc2cccc1n2.CCC(=O)[O-].CCC(=O)[O-].[Mn+2] [GC4747, Manganese(II)bis-propionato[6R-Methyl(4aR,13aR,17aR,21aR)-1,2,3,4,4a,5,6,12,13,13a,14,15,16,17,17a,18,19,20,21,21a-Eicosahydro-11,7-nitrilo-7H-dibenzo[b,h][1,4,7,10]tetraazacycloheptadecine-κN5, κN13, κN18, κN21, κN22]-]
- Mini-Pig BioA ([8]; Base oil Labrafil M2125 CS): 20%

Compound: Manganese(II)bis-D-phenylglycinato [(4aS,13aS,17aS,21aS)-1,2,3,4,4a,5,6,12,13,13a, 14,15,16,17,17a,18,19,20,21,21a-Eicosahydro-11,7-nitrilo-7H-dibenzo[b,h][1,4,7,10] tetraazacyclo-heptadecine-κN5, κN13, κN18, κN21, κN22]- [GC4721]
- Mini-Pig BioA ([8]; Base oil Miglyol 812 N): 11.5%^
